In patent US20250326748A1, “COMPOUNDS AND METHODS FOR MODULATING SPLICING” (REMIX THERAPEUTICS INC., priority 2022, published 2025):
Where a name gives a salt, the structure may show the parent alone. Read-outs that look alike come from different tables or passages of the source.

Assays:
Format in all cases: cell-based, human
MYB mRNA = assay: Splicing RT-qPCR assay, MYB canonical (CJ) and alternative (AJ) junction mRNA; conditions: Homo sapiens; for IC50: canonical junction mRNA; for AC50: alternative junction mRNA, read-out: MYB AJ (AC50, increase in AJ mRNA)
Outline: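 Splicing switches are scored by TaqMan qPCR on cell lysate, comparing abundance of the normal exon junction with the new junction formed when the alternative exon is included. A673 results are referenced to PPIA and K562 results to GAPDH or GUSB. Compound exposure lasts 24 h.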

SMN2 mRNA = assay: Splicing RT-qPCR panel, SMN2 canonical junction (CJ) mRNA; conditions: Homo sapiens, read-out: SMN2 CJ (decrease in CJ mRNA levels, IC50)
Outline: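 A673 cells (DMEM, 10% FBS) or K562 cells (IMDM, 10% FBS) treated 24 h at 37 °C with an 11-point 3-fold dilution, top 10 uM, DMSO ≤0.25%. Canonical-junction mRNA quantified in lysates by RT-qPCR, normalised to GAPDH, GUSB or PPIA and to DMSO (2^−ΔΔCt), then converted to % response.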

Target C = assay: HiBiT protein abundance assay, Target C (K562 HiBiT knock-in); conditions: HiBiT knock-in cells, 24 hours
Outline: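 K562 HiBiT knock-in cells (10000/well) in IMDM + 1% FBS were treated for 24 h at 37° C. with a 10-point 3-fold dilution series (top 10 μM final), with DMSO ≤0.25%. Unmodified K562 served as baseline. HiBiT lytic luminescence was normalized to controls, and IC50 was interpolated at 50% from a four-parameter fit.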

[1] = qPCR panel, read-out: MYB CJ (decrease in CJ mRNA levels, IC50)
[2] = RT-qPCR, A673 or K562 cells, 24 hours treatment
[3] = RT-qPCR, A673 or K562 cells, 24 hours treatment, read-out: MYB CJ (IC50, decrease in CJ mRNA)

| SMILES | IC50 (MYB mRNA; [1]) | IC50 (MYB mRNA; [3]) | IC50 (SMN2 mRNA) | IC50 (Target C) | AC50 (MYB mRNA; [2]) |
| --- | --- | --- | --- | --- | --- |
| CN(c1cnc2nc(-c3cc4cn(C)nc4c(F)c3O)ccc2c1)C1CCNCC1 [Compound 284] | 100 to 1000 nM | 100 to 1000 nM | < 100 nM | 1000 to 10000 nM | 100 to 1000 nM |
| Cn1cc2cc(-c3ccc4cc(NC5CCNCC5)cnc4n3)c(O)c(F)c2n1 [Compound 285] | 100 to 1000 nM | 100 to 1000 nM | < 100 nM | 1000 to 10000 nM | 100 to 1000 nM |
| CN[C@@H]1CCN(c2cnc3nc(-c4cc5cn(C)nc5c(C)c4O)cc(Cl)c3c2)C1 [Compound 286, 5-{4-chloro-6-[(3R)-3-(methylamino)pyrrolidin-1-yl]-1,8-naphthyridin-2-yl}-2,7-dimethylindazol-6-ol hydrochloride] | < 100 nM | < 100 nM | < 100 nM | < 100 nM | < 100 nM |
| CN[C@H]1CCN(c2cnc3nc(-c4cc5cn(C)nc5c(C)c4O)cc(Cl)c3c2)C1.Cl [Compound 287] | < 100 nM | < 100 nM | < 100 nM | 100 to 1000 nM | < 100 nM |
| C[C@H]1CN(c2cnc3nc(-c4cc(F)c5nn(C)cc5c4)cc(Cl)c3c2)C[C@@H](C2CC2)N1 [Compound 288] | 100 to 1000 nM | 100 to 1000 nM | < 100 nM | 1000 to 10000 nM | 100 to 1000 nM |
| Cc1c(O)c(-c2cc(Cl)c3cc(N(C)[C@@H]4CCNC4)cnc3n2)cc2cn(C)nc12.Cl [Compound 293] | 100 to 1000 nM | 100 to 1000 nM | < 100 nM | 1000 to 10000 nM | 100 to 1000 nM |

More lines, main results first:

| IC50 (MYB mRNA; [1]) | IC50 (MYB mRNA; [3]) | IC50 (SMN2 mRNA) | IC50 (Target C) | SMILES | AC50 (MYB mRNA; [2]) |
| --- | --- | --- | --- | --- | --- |
| 100 to 1000 nM | 100 to 1000 nM | < 100 nM | 1000 to 10000 nM | Cc1c(O)c(-c2cc(Cl)c3cc(N(C)[C@H]4CCNC4)cnc3n2)cc2cn(C)nc12 [Compound 294] | 100 to 1000 nM |
| < 100 nM | < 100 nM | < 100 nM | 100 to 1000 nM | C[C@@H]1CN(c2cnc3nc(-c4cc(F)c5nn(C)cc5c4)cc(Cl)c3c2)CCN1 [Compound 295, 4-chloro-2-(7-fluoro-2-methylindazol-5-yl)-6-[(3R)-3-methylpiperazin-1-yl]-1,8-naphthyridine] | 100 to 1000 nM |
| < 100 nM | < 100 nM | < 100 nM | 100 to 1000 nM | C[C@H]1CN(c2cnc3nc(-c4cc(F)c5nn(C)cc5c4)cc(Cl)c3c2)CCN1 [Compound 296] | 100 to 1000 nM |
| 100 to 1000 nM | 100 to 1000 nM | < 100 nM | 1000 to 10000 nM | Cc1cn2cc(-c3cc(Cl)c4cc(N5C[C@@H](C)N[C@@H](C)C5)cnc4n3)cc(F)c2n1 [Compound 297] | 100 to 1000 nM |
| 100 to 1000 nM | 100 to 1000 nM | 100 to 1000 nM | 1000 to 10000 nM | Cc1c(O)c(-c2ccc3c(C(F)(F)F)c(N4CCNCC4)cnc3n2)cc2cn(C)nc12 [Compound 302, 2,7-dimethyl-5-[6-(piperazin-1-yl)-5-(trifluoromethyl)-1,8-naphthyridin-2-yl]indazol-6-ol] | 100 to 1000 nM |
| 100 to 1000 nM | 100 to 1000 nM | < 100 nM | 1000 to 10000 nM | CN1CCC[C@@H]2CN(c3cnc4nc(-c5cc6cn(C)nc6c(F)c5O)cc(Cl)c4c3)C[C@@H]21 [Compound 303] | 100 to 1000 nM |
| 100 to 1000 nM | 100 to 1000 nM | < 100 nM | > 10000 nM | CN1CCC[C@H]2CN(c3cnc4nc(-c5cc6cn(C)nc6c(F)c5O)cc(Cl)c4c3)C[C@H]21 [Compound 304] | 100 to 1000 nM |
| 100 to 1000 nM | 100 to 1000 nM | < 100 nM | 1000 to 10000 nM | C[C@@H]1CN(c2cnc3nc(-c4cc5cn(C)nc5c(F)c4O)cc(C4CC4)c3c2)C[C@H](C)N1 [Compound 305, 5-{4-cyclopropyl-6-[(3R,5S)-3,5-dimethylpiperazin-1-yl]-1,8-naphthyridin-2-yl}-7-fluoro-2-methylindazol-6-ol] | 100 to 1000 nM |
